Tested on: SARS-CoV-2
Assay: microbe, parasite or virus in culture
Format: cell-based
Details: Severe acute respiratory syndrome coronavirus 2, 24 h; read-out: IC50 based on dose response curve by cytopathic effect (CPE)

| Structure (SMILES) | IC50 [nM] |
| --- | --- |
| O=c1cc(N2CCOCC2)oc2c(-c3ccc4c(c3)OCCO4)csc12 [Compound 0] | 1800 |
| CCC(CC)COC(=O)[C@H](C)N[P@](=O)(OC[C@H]1O[C@@](C#N)(c2ccc3c(N)ncnn23)[C@H](O)[C@@H]1O)Oc1ccccc1 [Remdesivir, reference compound] | 2240 |

Same assay, conditions: Severe acute respiratory syndrome coronavirus 2, 48 h; read-out: IC50 based on dose response curve by cytopathic effect (CPE)

| Structure (SMILES) | IC50 [nM] |
| --- | --- |
| O=c1cc(N2CCOCC2)oc2c(-c3ccc4c(c3)OCCO4)csc12 [Compound 0] | 4400 |
| CCC(CC)COC(=O)[C@H](C)N[P@](=O)(OC[C@H]1O[C@@](C#N)(c2ccc3c(N)ncnn23)[C@H](O)[C@@H]1O)Oc1ccccc1 [Remdesivir, reference compound] | 4600 |

Target: mTOR (Homo sapiens, UniProt P42345)
Assay: mTOR in vitro inhibition
Format: biochemical
Details: not given
Procedure: (§1) The kinase or bromodomain inhibitory activity of a compound of the invention can be determined by routine methods known to the skilled artisan without undue experimentation, or by procuring relevant analysis by a commercial vendor offering such services. […] In vivo, PI3K inhibition can be determined from target tissue biopsies by standard tissue processing in which cells are disrupted and Western Blot analysis is performed to determine the presence or absence of pAKT (substrate of PI3K) relative to a control sample. PI3K inhibition assays and BTK inhibition assays are known in the art and can be procured commercially through vendors such as Reaction Biology (Malvern, PA). The activity of a compound of the invention as an inhibitor of a bromodomain-containing protein, such as a BET protein, including BRD2, BRD3, BRD4, and/or BRDT, or an isoform or mutant thereof, may be determined in vitro, in vivo, or in a cell line. In vitro assays include assays that determine inhibition of bromodomain-containing proteins. Alternatively, inhibitor binding may be determined by running a competition experiment where a provided compound is incubated with a bromodomain-containing protein, such as a BET protein bound to known ligands, labeled or unlabeled. In vitro bromodomain inhibition assays can be performed using Alpha Screen Technology (Perkin Elmer Life and Analytical Sciences, Shelton, CT). In vivo bromodomain inhibition can be determined indirectly by evaluating the amount of a protein whose gene transcription is influenced or controlled by the bromodomain protein, for example, MYCN protein transcription is controlled by BRD4 (J.E. Delmore et al., Cell 2011, 146, 904-917; A. Puissant, Cancer Discov. 2013, 3, 308-323).
(§2) IC50 inhibition data against the indicated targets were determined for compounds of the invention using standard in vitro assays (Tables 8 and 9).

| Structure (SMILES) | IC50 [nM] |
| --- | --- |
| O=c1cc(N2CCOCC2)oc2c(-c3ccc4c(c3)OCCO4)csc12 [Compound 0] | < 500 |

Target: T1, BRD4-1 (Homo sapiens, UniProt O60885)
T1 construct: BRD4-1
Assay: BRD4-1 in vitro inhibition
Format: binding
Details: not given
Procedure: as §1

| Structure (SMILES) | IC50 [nM] |
| --- | --- |
| O=c1cc(N2CCOCC2)oc2c(-c3ccc4c(c3)OCCO4)csc12 [Compound 0] | < 500 |

Tested on: SARS-CoV-2
Assay: SARS-CoV-2 viral load in culture supernatant (RT-QPCR), UNCN1T cells
Details: read-out: IC50 based on SARS-CoV-2 viral loads in culture supernatant, 24 hrs post-infection

| Structure (SMILES) | IC50 [nM] |
| --- | --- |
| O=c1cc(N2CCOCC2)oc2c(-c3ccc4c(c3)OCCO4)csc12 [Compound 0] | 1520 |
| CCC(CC)COC(=O)[C@H](C)N[P@](=O)(OC[C@H]1O[C@@](C#N)(c2ccc3c(N)ncnn23)[C@H](O)[C@@H]1O)Oc1ccccc1 [Remdesivir, reference compound] | 1060 |

Same assay, conditions: read-out: IC50 based on SARS-CoV-2 viral loads in culture supernatant, 48 hrs post-infection

| Structure (SMILES) | IC50 [nM] |
| --- | --- |
| O=c1cc(N2CCOCC2)oc2c(-c3ccc4c(c3)OCCO4)csc12 [Compound 0] | 1580 |
| CCC(CC)COC(=O)[C@H](C)N[P@](=O)(OC[C@H]1O[C@@](C#N)(c2ccc3c(N)ncnn23)[C@H](O)[C@@H]1O)Oc1ccccc1 [Remdesivir, reference compound] | 2750 |

Tested on: SARS-CoV-2
Assay: microbe, parasite or virus in culture
Format: cell-based
Details: Severe acute respiratory syndrome coronavirus 2, 24 h; read-out: IC50 based on SARS-CoV-2 viral loads in culture supernatant

| Structure (SMILES) | IC50 [nM] |
| --- | --- |
| O=c1cc(N2CCOCC2)oc2c(-c3ccc4c(c3)OCCO4)csc12 [Compound 0] | 1020 |
| CCC(CC)COC(=O)[C@H](C)N[P@](=O)(OC[C@H]1O[C@@](C#N)(c2ccc3c(N)ncnn23)[C@H](O)[C@@H]1O)Oc1ccccc1 [Remdesivir, reference compound] | 1030 |

Same assay, conditions: Severe acute respiratory syndrome coronavirus 2, 48 h; read-out: IC50 based on SARS-CoV-2 viral loads in culture supernatant

| Structure (SMILES) | IC50 [nM] |
| --- | --- |
| O=c1cc(N2CCOCC2)oc2c(-c3ccc4c(c3)OCCO4)csc12 [Compound 0] | 3220 |
| CCC(CC)COC(=O)[C@H](C)N[P@](=O)(OC[C@H]1O[C@@](C#N)(c2ccc3c(N)ncnn23)[C@H](O)[C@@H]1O)Oc1ccccc1 [Remdesivir, reference compound] | 760 |

Tested on: SARS-CoV-2
Assay: microbe, parasite or virus in culture
Format: cell-based
Details: Severe acute respiratory syndrome coronavirus 2, Vero, 24 h, read-out: Median Effective Dose

| Structure (SMILES) | EC50 [nM] |
| --- | --- |
| CCC(CC)COC(=O)[C@H](C)N[P@](=O)(OC[C@H]1O[C@@](C#N)(c2ccc3c(N)ncnn23)[C@H](O)[C@@H]1O)Oc1ccccc1 [Remdesivir, reference compound] | 533 |

Same assay, conditions: Severe acute respiratory syndrome coronavirus 2; VERO STAT1 KO Cells; 24 hours post-infection; read-out: Median Effective Dose

| Structure (SMILES) | EC50 [nM] |
| --- | --- |
| O=c1cc(N2CCOCC2)oc2c(-c3ccc4c(c3)OCCO4)csc12 [Compound 0] | 2620 |

Same assay, conditions: VERO-STAT1 KO cells at Fa 0.5

| Structure (SMILES) | dose reduction index (DRI) |
| --- | --- |
| CCC(CC)COC(=O)[C@H](C)N[P@](=O)(OC[C@H]1O[C@@](C#N)(c2ccc3c(N)ncnn23)[C@H](O)[C@@H]1O)Oc1ccccc1 [Remdesivir, reference compound] | 2.35 |

Target: BTK C481S (Homo sapiens, UniProt Q06187, C481S)
Sequence (Q06187 whole entry C481S): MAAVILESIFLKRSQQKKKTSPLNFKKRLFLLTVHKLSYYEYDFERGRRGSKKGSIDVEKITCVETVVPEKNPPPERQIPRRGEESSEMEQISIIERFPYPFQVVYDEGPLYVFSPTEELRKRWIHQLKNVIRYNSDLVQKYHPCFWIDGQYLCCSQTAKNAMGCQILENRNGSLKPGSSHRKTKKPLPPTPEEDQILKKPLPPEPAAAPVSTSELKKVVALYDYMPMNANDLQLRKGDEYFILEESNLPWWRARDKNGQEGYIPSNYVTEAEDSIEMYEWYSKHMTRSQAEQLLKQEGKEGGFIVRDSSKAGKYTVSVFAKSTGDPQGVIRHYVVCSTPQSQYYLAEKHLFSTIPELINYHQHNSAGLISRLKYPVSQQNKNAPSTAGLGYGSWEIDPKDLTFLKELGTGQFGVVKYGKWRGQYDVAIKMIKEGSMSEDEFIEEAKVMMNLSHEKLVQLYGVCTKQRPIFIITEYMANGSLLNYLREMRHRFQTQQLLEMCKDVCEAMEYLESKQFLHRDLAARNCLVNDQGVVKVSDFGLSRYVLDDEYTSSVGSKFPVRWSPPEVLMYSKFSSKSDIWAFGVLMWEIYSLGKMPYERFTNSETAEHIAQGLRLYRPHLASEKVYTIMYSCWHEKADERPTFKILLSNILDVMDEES
Assay: BTK C481S in vitro inhibition
Format: biochemical
Details: not given
Procedure: as §1, §2

| Structure (SMILES) | IC50 [nM] |
| --- | --- |
| O=c1cc(N2CCOCC2)oc2c(-c3ccc4c(c3)OCCO4)csc12 [Compound 0] | 10000 to 45000 |

Target: PI3K gamma (Homo sapiens, UniProt P48736)
Sequence (P48736 whole entry): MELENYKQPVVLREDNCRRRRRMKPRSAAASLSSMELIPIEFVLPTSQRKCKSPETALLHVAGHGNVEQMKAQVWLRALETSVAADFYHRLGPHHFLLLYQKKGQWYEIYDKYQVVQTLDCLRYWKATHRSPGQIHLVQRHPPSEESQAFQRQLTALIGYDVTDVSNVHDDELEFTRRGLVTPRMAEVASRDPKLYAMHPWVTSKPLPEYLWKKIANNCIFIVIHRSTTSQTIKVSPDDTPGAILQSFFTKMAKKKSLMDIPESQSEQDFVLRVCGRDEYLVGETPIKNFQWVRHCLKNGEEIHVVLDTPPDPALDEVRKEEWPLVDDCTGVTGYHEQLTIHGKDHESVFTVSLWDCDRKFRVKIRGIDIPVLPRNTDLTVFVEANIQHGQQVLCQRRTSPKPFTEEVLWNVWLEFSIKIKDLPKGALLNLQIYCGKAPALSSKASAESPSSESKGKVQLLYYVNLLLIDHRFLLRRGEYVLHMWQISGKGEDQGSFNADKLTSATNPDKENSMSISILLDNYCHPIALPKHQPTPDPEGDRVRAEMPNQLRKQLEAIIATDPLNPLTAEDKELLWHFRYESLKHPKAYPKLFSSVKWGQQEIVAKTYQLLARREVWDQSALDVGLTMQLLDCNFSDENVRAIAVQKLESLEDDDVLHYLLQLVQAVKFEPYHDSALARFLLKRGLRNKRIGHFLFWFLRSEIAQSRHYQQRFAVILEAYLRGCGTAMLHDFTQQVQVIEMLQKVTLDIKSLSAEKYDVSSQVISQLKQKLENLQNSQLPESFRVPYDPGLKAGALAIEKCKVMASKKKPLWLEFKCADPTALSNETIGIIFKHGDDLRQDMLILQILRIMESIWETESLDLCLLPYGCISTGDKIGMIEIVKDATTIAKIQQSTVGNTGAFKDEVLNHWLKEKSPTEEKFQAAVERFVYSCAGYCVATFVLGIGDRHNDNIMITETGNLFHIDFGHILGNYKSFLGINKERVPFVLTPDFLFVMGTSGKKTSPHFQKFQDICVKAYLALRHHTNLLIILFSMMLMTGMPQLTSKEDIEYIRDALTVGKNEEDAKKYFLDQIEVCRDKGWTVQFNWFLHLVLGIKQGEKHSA
Assay: PI3K gamma in vitro inhibition
Format: biochemical
Details: IC50 inhibition PI3K gamma
Procedure: as §1, §2

| Structure (SMILES) | IC50 [nM] |
| --- | --- |
| O=c1cc(N2CCOCC2)oc2c(-c3ccc4c(c3)OCCO4)csc12 [Compound 0] | < 500 |

Target: BTK (Homo sapiens, UniProt Q06187)
Sequence (Q06187 whole entry): as the sequence (Q06187 whole entry C481S) above, with S481C counted along it
Assay: BTK in vitro inhibition
Format: biochemical
Details: not given
Procedure: as §1, §2

| Structure (SMILES) | IC50 [nM] |
| --- | --- |
| O=c1cc(N2CCOCC2)oc2c(-c3ccc4c(c3)OCCO4)csc12 [Compound 0] | 10000 to 45000 |

Target: T2, BRD4-2 (Homo sapiens, UniProt O60885)
T2 construct: BRD4-2
Assay: BRD4-2 in vitro inhibition
Format: binding
Details: not given
Procedure: as §1

| Structure (SMILES) | IC50 [nM] |
| --- | --- |
| O=c1cc(N2CCOCC2)oc2c(-c3ccc4c(c3)OCCO4)csc12 [Compound 0] | 500 to 1000 |

Tested on: SARS-CoV-2
Assay: Cytopathic effect (CPE), CellTiter-Glo, SARS-CoV-2 infected UNCN1T cells
Details: read-out: IC50 based on dose response curve by cytopathic effect (CPE), 24 hrs post-infection

| Structure (SMILES) | IC50 [nM] |
| --- | --- |
| O=c1cc(N2CCOCC2)oc2c(-c3ccc4c(c3)OCCO4)csc12 [Compound 0] | 250 |
| CCC(CC)COC(=O)[C@H](C)N[P@](=O)(OC[C@H]1O[C@@](C#N)(c2ccc3c(N)ncnn23)[C@H](O)[C@@H]1O)Oc1ccccc1 [Remdesivir, reference compound] | 220 |

Tested on: SARS-CoV-2
Assay: microbe, parasite or virus in culture
Details: Severe acute respiratory syndrome coronavirus 2, HeLa-ACE2

| Structure (SMILES) | inhibition at 2.4 µM [%] |
| --- | --- |
| O=c1cc(N2CCOCC2)oc2c(-c3ccc4c(c3)OCCO4)csc12 [Compound 0] | 94 |

Same assay, conditions: Severe acute respiratory syndrome coronavirus 2, HeLa-ACE2, read-out: IC50 inhibition of SARS-CoV-2 (viral plaques)

| Structure (SMILES) | IC50 [nM] |
| --- | --- |
| O=c1cc(N2CCOCC2)oc2c(-c3ccc4c(c3)OCCO4)csc12 [Compound 0] | 900 |
| CCC(CC)COC(=O)[C@H](C)N[P@](=O)(OC[C@H]1O[C@@](C#N)(c2ccc3c(N)ncnn23)[C@H](O)[C@@H]1O)Oc1ccccc1 [Remdesivir, reference compound] | 100 |

Target: PI3K beta (Homo sapiens, UniProt P42338)
Sequence (P42338 whole entry): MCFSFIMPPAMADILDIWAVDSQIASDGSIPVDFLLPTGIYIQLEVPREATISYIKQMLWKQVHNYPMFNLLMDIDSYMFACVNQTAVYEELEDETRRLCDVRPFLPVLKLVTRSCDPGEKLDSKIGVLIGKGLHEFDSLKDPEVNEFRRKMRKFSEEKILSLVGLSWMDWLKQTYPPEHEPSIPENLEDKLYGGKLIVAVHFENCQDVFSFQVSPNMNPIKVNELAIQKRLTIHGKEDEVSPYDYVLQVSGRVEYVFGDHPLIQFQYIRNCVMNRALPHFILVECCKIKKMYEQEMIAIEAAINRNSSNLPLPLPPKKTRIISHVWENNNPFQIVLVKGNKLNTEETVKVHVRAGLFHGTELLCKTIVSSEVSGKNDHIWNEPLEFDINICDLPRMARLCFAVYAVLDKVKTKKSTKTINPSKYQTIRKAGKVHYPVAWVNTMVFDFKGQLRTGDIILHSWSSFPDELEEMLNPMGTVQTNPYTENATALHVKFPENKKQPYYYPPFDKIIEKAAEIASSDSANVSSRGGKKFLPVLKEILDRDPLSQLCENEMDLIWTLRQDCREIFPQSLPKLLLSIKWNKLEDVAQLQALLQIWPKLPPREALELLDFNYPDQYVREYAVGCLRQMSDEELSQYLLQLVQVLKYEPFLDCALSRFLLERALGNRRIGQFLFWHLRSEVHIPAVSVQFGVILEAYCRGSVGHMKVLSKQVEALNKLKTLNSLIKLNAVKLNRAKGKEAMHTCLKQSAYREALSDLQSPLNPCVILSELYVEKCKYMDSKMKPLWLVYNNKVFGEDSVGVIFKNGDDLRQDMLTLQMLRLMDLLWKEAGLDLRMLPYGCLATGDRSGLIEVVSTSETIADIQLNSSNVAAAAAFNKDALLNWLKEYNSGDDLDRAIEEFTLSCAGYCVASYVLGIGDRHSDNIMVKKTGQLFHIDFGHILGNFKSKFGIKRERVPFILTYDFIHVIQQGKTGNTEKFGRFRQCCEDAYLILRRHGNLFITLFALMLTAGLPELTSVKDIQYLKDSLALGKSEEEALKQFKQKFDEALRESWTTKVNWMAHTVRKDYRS
Sequence (P27986 whole entry partner): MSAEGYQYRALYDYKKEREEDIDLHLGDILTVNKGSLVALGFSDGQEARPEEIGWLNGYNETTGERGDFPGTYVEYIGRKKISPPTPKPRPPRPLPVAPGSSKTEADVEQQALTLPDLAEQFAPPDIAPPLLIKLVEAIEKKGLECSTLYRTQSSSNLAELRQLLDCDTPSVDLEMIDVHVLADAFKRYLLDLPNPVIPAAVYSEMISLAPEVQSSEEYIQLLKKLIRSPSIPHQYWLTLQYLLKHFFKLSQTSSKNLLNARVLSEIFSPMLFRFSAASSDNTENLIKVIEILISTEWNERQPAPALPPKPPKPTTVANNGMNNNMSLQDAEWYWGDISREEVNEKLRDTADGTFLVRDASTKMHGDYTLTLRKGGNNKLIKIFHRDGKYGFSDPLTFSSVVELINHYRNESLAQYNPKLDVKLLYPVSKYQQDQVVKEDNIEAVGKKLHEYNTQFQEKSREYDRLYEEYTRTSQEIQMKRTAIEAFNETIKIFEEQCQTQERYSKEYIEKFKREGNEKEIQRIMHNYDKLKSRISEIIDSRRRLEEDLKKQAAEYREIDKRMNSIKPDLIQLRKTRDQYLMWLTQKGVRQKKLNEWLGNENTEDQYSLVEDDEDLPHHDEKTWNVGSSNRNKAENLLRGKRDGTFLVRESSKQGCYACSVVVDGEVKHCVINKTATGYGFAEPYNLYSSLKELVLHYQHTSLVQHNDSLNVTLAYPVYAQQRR
Assay: PI3K beta in vitro inhibition
Format: biochemical
Details: not given
Procedure: as §1

| Structure (SMILES) | IC50 [nM] |
| --- | --- |
| O=c1cc(N2CCOCC2)oc2c(-c3ccc4c(c3)OCCO4)csc12 [Compound 0] | < 500 |

Tested on: mice carrying the Fli1 deletion
Assay: Bleomycin-induced lung fibrosis in mice carrying the Fli1 deletion
Format: in vivo
Details: 50 mg/kg on day 9, 12, 15 after intra-tracheal bleomycin 0.4 mg/kg; sacrifice day 21
Source text: Bleomycin-induced lung fibrosis is the most frequently used rodent model for lung fibrosis, and inflammatory and fibrotic events similar to those seen in human pulmonary fibrosis (Am J Respir Cell Mol Biol. 2013 Aug; 49(2): 167-179; https://www.atsjournals.org/doi/full/10.1165/rcmb.2013-0094TR; PMID: 23526222). Systemic sclerosis (SSc) is manifested by vasculopathy, immune dysregulation and fibrosis of the skin and certain internal organs, especially lungs (Nat Commun. 2014; 5: 5797.; https://www.nature.com/articles/ncomms6797; PMID: 25504335). Friend leukemia integration 1 (Fli1) is a potent repressor of the type I collagen gene. […] Bleomycin was administered intra-tracheally to mice (0.4 mg/kg) and no drug was given during the inflammatory phase (8 days). […] IRS-1 is a component of the insulin signaling pathway which is involved in the increased collagen production by cells carrying the Fli1 deletion.

| Structure (SMILES) | prevention of development of fibrosis (Masson Trichrome staining, tissue collagen content, Ashcroft score) |
| --- | --- |
| O=c1cc(N2CCOCC2)oc2c(-c3ccc4c(c3)OCCO4)csc12 [Compound 0] | remarkably effective in preventing the development of fibrosis |

Tested on: SARS-CoV-2
Assay: microbe, parasite or virus in culture
Format: cell-based
Details: Severe acute respiratory syndrome coronavirus 2, 24 h, read-out: Median Effective Dose

| Structure (SMILES) | EC50 [nM] |
| --- | --- |
| CCC(CC)COC(=O)[C@H](C)N[P@](=O)(OC[C@H]1O[C@@](C#N)(c2ccc3c(N)ncnn23)[C@H](O)[C@@H]1O)Oc1ccccc1 [Remdesivir, reference compound] | 272 |

Same assay, conditions: Severe acute respiratory syndrome coronavirus 2; UNCN1T Cells; 24 hours post-infection; read-out: Median Effective Dose

| Structure (SMILES) | EC50 [nM] |
| --- | --- |
| O=c1cc(N2CCOCC2)oc2c(-c3ccc4c(c3)OCCO4)csc12 [Compound 0] | 1840 |

Same assay, conditions: UNCN1T cells

| Structure (SMILES) | dose reduction index (DRI) |
| --- | --- |
| CCC(CC)COC(=O)[C@H](C)N[P@](=O)(OC[C@H]1O[C@@](C#N)(c2ccc3c(N)ncnn23)[C@H](O)[C@@H]1O)Oc1ccccc1 [Remdesivir, reference compound] | 3.75 |

Tested on: SARS-CoV-2
Assay: not given
Details: at effective anti-viral concentrations; Hela-ACE2 cells

| Structure (SMILES) | cellular cytotoxicity |
| --- | --- |
| O=c1cc(N2CCOCC2)oc2c(-c3ccc4c(c3)OCCO4)csc12 [Compound 0] | no cellular cytotoxicity is noted |
